Experiments:
ClpP1P2 complex in Mtb [1] = target: T1, ClpP1P2 complex in Mtb (Mycobacterium tuberculosis, UniProt P9WPC5); assay: ClpP1P2 peptidase activity assay, dose-response and IC50 determination; type: biochemical
Description: (§1) ClpP1P2 complex in Mtb can catalyze the hydrolysis of small peptides. Following previous protocols, we measure the in vitro inhibition of ClpP peptidase activity by monitoring the cleavage of fluorogenic peptide Ac-Pro-Lys-Met-AMC[65]–[67].
(§2) The solution is pre-incubated at room temperature for 2 hours. Then, 20 μL substrate buffer with Ac-Pro-Lys-Met-AMC is added (final concentration of Ac-Pro-Lys-Met-AMC is 10 μM; reaction buffer is the same with the above). Fluorescence (Ex/Em: 380/ 440 nm) is recorded for 120 min at 37 °C.
To determine IC50, candidate inhibitors are assayed at 9 or 10 gradient concentrations. […] IC50 is determined by the change of recorded fluorescence (as RFU) and gradient dilution of inhibitors concentration. Non-linear fit (log(inhibitor) vs. normalized response) is used for IC50 curve fitting.

ClpP1P2 complex in Mtb [2] = target: T1, ClpP1P2 complex in Mtb; assay: ClpP1P2 peptidase activity assay, single-dose response; type: biochemical; details: read-out: Inhibition rate relative to Bortezomib
Description: as §1, §2

[3] = source data Figure4b, synthesized compounds
[4] = source data Figure4b, screening hits

T1 sequence (P9WPC5 whole entry, looked up, one chain of several): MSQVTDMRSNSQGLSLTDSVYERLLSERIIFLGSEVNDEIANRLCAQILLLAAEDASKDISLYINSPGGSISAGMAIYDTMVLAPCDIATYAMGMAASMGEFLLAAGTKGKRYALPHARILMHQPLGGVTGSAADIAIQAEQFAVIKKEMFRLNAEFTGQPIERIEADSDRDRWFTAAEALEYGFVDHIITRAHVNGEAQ

NS(=O)(=O)c1ccc(NC(=O)Nc2ccc(Cl)c(C(F)(F)F)c2)cc1 [Syn-A003-01]
IC50 (ClpP1P2 complex in Mtb [1]; [3]): 20.3 µM

O=C(Nc1ccccc1F)Nc1ccccc1NC(=O)c1ccccc1Cl [Analog-002]
IC50 (ClpP1P2 complex in Mtb [1]; [4]): 19.9 µM

CN(C)S(=O)(=O)c1ccc(C(=O)N2C(=O)c3cccc(N)c3C2=O)cc1 [Analog-005]
IC50 (ClpP1P2 complex in Mtb [1]; Mtb ClpP, dose-response assay, Fig. 4b and text): 1.9 µM
IC50 (ClpP1P2 complex in Mtb [1]; [4]): 1.88 µM

Oc1c(Cc2ccccc2)ccc2ccccc12 [Analog-004]
IC50 (ClpP1P2 complex in Mtb [1]; [4]): 19.6 µM

CN(C)S(=O)(=O)c1ccc(C(=O)N2C(=O)c3ccccc3C2=O)cc1 [Syn-A005-02]
IC50 (ClpP1P2 complex in Mtb [1]; [3]): 3.4 µM

Cc1ccc(C(=O)N2C(=O)c3ccccc3C2=O)cc1 [Syn-A005-01]
IC50 (ClpP1P2 complex in Mtb [1]; [3]): 5.34 µM

NS(=O)(=O)c1ccc(NC(=O)Nc2cc(Cl)cc(Cl)c2)cc1 [Analog-003]
IC50 (ClpP1P2 complex in Mtb [1]; [4]): 10.1 µM
inhibition at 20 µM (ClpP1P2 complex in Mtb [2]): 48%

O=C(Nc1ccc(F)cc1)Nc1ccc(Br)c(C(F)(F)F)c1 [Analog-001]
IC50 (ClpP1P2 complex in Mtb [1]; [4]): 17.2 µM

Reference: article PMC11522292, “TamGen: drug design with target-aware molecule generation through a chemical language model” (Nature Communications, 2024)
